Here are results for 111 compounds from PubChem BioAssay AID540258 (Broad Institute, 2011).

The source made the active and inactive calls.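 How the source made its calls: active means fitted curve reaching 40% activation at or below the top valid dose tested; inconclusive means flat curve at 30 to 70% activation, or poor fit; inactive means the rest.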

For this experiment, the system named is SK-MEL-5 TRPM1 promoter luciferase reporter, 24 h. In words: MITF activators via TRPM1 promoter reporter, dose response, SK-MEL-5 cells, luciferase, cherry-pick samples (AID 540258).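 Further: potency for activators that raise TRPM1 promoter luciferase signal.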
For the compound `COCc1nn2c(N)c(-c3ccccc3)cnc2c1-c1ccccc1`, the AC40 is 2620 nM.
Consider `CN(C)c1ccc(/C=C/c2cccc[n+]2[O-])cc1`, for which the AC40 is 14300 nM.
Next, `Nc1nonc1-n1nnc(C(=O)N/N=C/c2ccc(OCc3ccccc3F)cc2)c1CN1CCCCC1`: 17100 nM; `Cc1ccc(S(=O)(=O)Nc2cccc(-c3ccc(N4CCCCCC4)nn3)c2)cc1`: 4900 nM; `c1ccc2c(c1)CC/C2=N/Nc1nc2ccccc2[nH]1`: 860 nM.
The value for `O=C(NC1CCCCCC1)c1cc2c(=O)n3ccccc3nc2s1` was 8630 nM; that for `c1ccc2c(c1)NC1(CCCC1)n1c-2nc2ccccc21` was 11300 nM.
`COc1cc(C=O)ccc1OCc1cccc(Br)c1`: the AC40 is 5930 nM.
Consider `Cc1snc2sc(C(=O)c3ccc(Br)cc3)c(N)c12`, for which the AC40 is 1480 nM.
The value for `COc1ccc(N2C(=O)c3ccccc3NC23CCCCC3)cc1` was 1620 nM.
Take `COCc1ccc(-c2c(-c3ccc(OC)cc3)oc(=O)c3cc(OC)c(OC)cc23)cc1`: the AC40 was 3050 nM.
Turning to `CCN(CC)CC(=O)Nc1scc2c1c(=O)oc1ccccc12`, the AC40 was 6270 nM.
Next, `CCCn1nnc2sc3c(c2c1=O)CCC(C)C3` (stereo unspecified): 3320 nM; `CCN(CC)C(=O)CCc1nnc(Cc2cccc(C(F)(F)F)c2)o1`: 1950 nM.
Next, `c1ccc2oc(-c3ccc4nc[nH]c4c3)nc2c1`: 866 nM; `Cc1cccc(C(=O)Nc2ccn(C)n2)c1`: 24400 nM.
The value for `CCC(C)c1ccc(NC(=O)Nc2cccnc2)cc1` (stereo unspecified) was 2210 nM; that for `Cn1cc(Br)c(C(=O)Nc2sc3c(c2C(N)=O)CCCC3)n1` was 10400 nM.
On to `C/C(=N/OCc1ccc(Br)cc1)c1ccccn1`, for which the AC40 is 336 nM.
Next, `c1csc(-c2noc(COc3ccc4c(c3)CCCC4)n2)c1`: 2140 nM; `COc1ccc(/C=C2\SC(=O)N(CCNC(=O)C3CC4C=CC3C4)C2=O)cc1` (stereo unspecified): 1390 nM; `Clc1ccc(COn2nnc3ccccc32)c(Cl)c1`: 941 nM.
For `Cc1nn(-c2ccc(N3CCCCC3)nn2)c(C)c1CCC(=O)Nc1cccc(F)c1`, the AC40 was 3230 nM.
In the case of `CC(=O)c1cccc(OCc2cc(C(=O)N(C)Cc3cnccn3)no2)c1`, the AC40 was 9270 nM.
As for `O=C(Nc1ccc2c(c1)CCC2)c1c(F)cccc1Cl`, the AC40 was 1840 nM.
In the case of `CC(C)c1ccc(/C=N/NC(=O)C2CCCC2)cc1`, the AC40 is 2440 nM.
For `O=Cc1ccc(OCc2ccc3ccccc3c2)cc1`, the AC40 is 1400 nM.
The value for `CC1(C)CNC(=O)c2sc(NC(=O)c3ccccc3)nc2C1` was 21900 nM; that for `O=C(Cc1ccccn1)c1ccc(Cl)cc1` was 1980 nM; that for `CC1(C)CC(/C=C/c2ccccc2)=Nc2ccccc2N1` was 20900 nM.
As to `COC(=O)Cc1ccc(NC(=O)c2ccc(C)c(C)c2)cc1`, the AC40 is 1490 nM.
Next, `Oc1[nH]c2ccccc2c1C=Nc1ccccc1`: 5550 nM; `O=C1CCCc2nc3c(cc21)C(O)Oc1c-3ccc2ccccc12` (stereo unspecified): 1520 nM.
For the compound `c1ccc(CSCc2cn3ccsc3n2)cc1`, the AC40 was 11200 nM.
The value for `O=C(N=C1N=C2C=CC=CN2Cc2ccccc21)c1ccc(S(=O)(=O)N2CCCC2)cc1` was 30100 nM; that for `CCCc1cc(-c2ccc3c(c2)COc2c4ccccc4nn2-3)on1` was 145 nM.
In the case of `O=C(N/N=C\c1cccc(Cl)c1)c1n[nH]c2c1CCCC2`, the AC40 is 504 nM.
As to `Cc1ccc(NC(=O)c2sc3nc(C)cc(C)c3c2N)cc1`, the AC40 is 205 nM.
Turning to `C/C(=C\C(=O)c1cccnc1)Nc1ccc(C)c(C)c1`, the AC40 is 6870 nM.
As for `O=C(CC(Nc1ccccc1)C(=O)O)c1ccccc1` (stereo unspecified), the AC40 was 749 nM.
For `c1ccc(SCc2nc(-c3ccccn3)no2)cc1`, the AC40 was 3010 nM.
Next, `Cc1ccc(O)c(C2=Nc3ccccc3C2(C)C)c1`: 8510 nM.
On to `Cc1ccc(CNc2nc(C)cs2)cc1`, for which the AC40 was 1050 nM.
For the compound `COc1ccc(C(=S)Nc2ccc(C)cc2)cc1`, the AC40 was 2650 nM.
Take `Cc1nc(-c2ccc(NC(=O)c3ccccc3Br)cc2)cs1`: the AC40 is 1570 nM.
Regarding `CNC(=O)C(=O)Nc1nc(C23CC4CC(CC(C4)C2)C3)cs1`, the AC40 was 16600 nM.
`c1ccc(Nc2ccc(Nc3ccccc3)cc2)cc1`: the AC40 is 23700 nM.
As to `Cc1cc2cc(OCc3ccccc3)ccc2n1C`, the AC40 is 737 nM.
The value for `COc1ccc(C(=O)Nc2ccc3c4c(cccc24)CC3)cc1` was 13300 nM; that for `Cn1c2ccccc2c(=O)c2ccc(-c3ccc4c(c3)OCO4)cc21` was 851 nM; that for `COc1cc(/C=C/c2nc3ccccc3c(=O)[nH]2)ccc1OC(F)F` was 980 nM.
For the compound `Clc1ccc(-n2nnc(-c3cccnc3Cl)n2)cn1`, the AC40 is 3300 nM.
For `C=CCC1(CC=C)CCCN1C(=O)C1CCC(=O)N(CCc2ccccc2)C1` (stereo unspecified), the AC40 is 7520 nM.
`CC(=O)c1ccc(N2Cc3ccccc3C2=NC(=O)c2cccs2)cc1`: the AC40 was 24600 nM.
The value for `CCS(=O)(=O)N1Cc2ccccc2CC1C(=O)NCc1cccc(OC)c1` (stereo unspecified) was > 35000 nM (inactive); that for `Oc1ccc(N=Nc2ccccc2)cc1` was 3980 nM; that for `c1cncc(-c2nc3ccccc3s2)c1` was 3800 nM.
With `COc1ccc2c(c1)CC/C(=C\Nc1ccc3c(c1)OCO3)C2=O`, the AC40 is 2300 nM.
On to `CCc1c(C(=O)Nc2ccc(C)c(C)c2)[nH]c(C)c1C(C)=O`, for which the AC40 was 5170 nM.
The value for `Cc1cccc(OC(=O)c2sc3ncn(C)c(=O)c3c2C)c1` was 6160 nM.
Turning to `FC(F)(F)c1cnc(-c2cnc(-c3cccnc3)nc2)c(Cl)c1`, the AC40 is 3020 nM.
As to `Cc1nn(CC(C)C)c(Cl)c1C(=O)NC1CCC(C)CC1` (stereo unspecified), the AC40 was 2630 nM.
On to `Oc1nc(Nc2ccccc2)sc1/C=C1\C=Nc2ccccc21`, for which the AC40 is 9810 nM.
In the case of `CCCCc1nc2cc(C(=O)N3CCN(c4nc(C)cnc4C)CC3)ccc2o1`, the AC40 was > 35000 nM (inactive).
As for `CCSc1nnc(NC(=O)NC2CCCCC2)s1`, the AC40 was > 35000 nM (inactive).
Consider `CCc1ccc(NC(=O)C(=S)NC2CCCCC2)cc1`, for which the AC40 is 542 nM.
Turning to `CC(C)c1ccc(N=C2NN=C(c3cccs3)CS2)cc1`, the AC40 is 547 nM.
For `CC(=O)Nc1cccc(-c2nc3ccc(NC(C)=O)cc3s2)c1`, the AC40 was 1300 nM.
The value for `O=C(Cc1ccccc1F)Nc1ccc(SC(F)F)cc1` was 1980 nM; that for `c1ccc(-c2nc3ccccc3[nH]2)cc1` was 1810 nM; that for `Cc1cc(CNC(=O)c2cc(COc3ccc(F)c(F)c3)on2)nn1C` was 3370 nM.
On to `Oc1ccc(Br)cc1/C=N/N1CCCCC1`, for which the AC40 was 1750 nM.
As for `COc1ccc2oc(=O)c(C(=O)N3CCN(c4ccccc4C)CC3)cc2c1`, the AC40 was 8140 nM.
As to `Cc1ccc(Nc2cc(C)nc(-c3ccccc3)n2)cc1`, the AC40 was 2320 nM.
Turning to `CC1CCN(C(=O)c2cc(-c3ccccc3O)on2)CC1`, the AC40 was 383 nM.
For `COc1cccc2sc3ccc(C#CC4(O)CCCCC4)cc3c(=O)c12`, the AC40 was 2940 nM.
Consider `Cc1ccc(-c2noc(C3CCCCC3)n2)cc1`, for which the AC40 was 1680 nM.
Regarding `COC(=O)C1CCc2c(ccc3c2CCCC3)C1=O` (stereo unspecified), the AC40 is 2030 nM.
`COc1cc(/C=C/c2noc(-c3ccccc3O)n2)ccc1OC(C)=O`: the AC40 was 1620 nM.
Regarding `COC(=O)C1CCCCN1C(=O)c1ccc2oc(Cc3ccccc3)nc2c1` (stereo unspecified), the AC40 is 3180 nM.
As to `COc1cccc2cc(CC(=O)c3ccc(C)cc3C)c(=O)oc12`, the AC40 was 11900 nM.
For the compound `O=c1c2ccccc2oc2c1ccc1ccccc12`, the AC40 was 10500 nM.
With `O=C1c2ccccc2C(=O)N1CCc1c[nH]c2ccccc12`, the AC40 is 2190 nM.
The value for `O=S(=O)(Cc1cc(-c2ccccc2Cl)no1)c1ccccc1` was 9760 nM.
Turning to `Cn1ccs/c1=N\C(=O)Nc1ccccc1`, the AC40 is 1590 nM.
Next, `Cc1nn2cc(-c3ccc(Cl)cc3)cnc2c1Cl`: 8040 nM; `CCCN(CCC)c1ncnc2c1cnn2-c1ccc(OC)cc1`: 256 nM.
Consider `COc1cccc(NC(=O)Nc2ccc3c(c2)nnn3C)c1`, for which the AC40 was 4880 nM.
The value for `COc1ccc2cc(-c3csc(-c4cccnc4)n3)ccc2c1` was 2090 nM; that for `Cc1ccc(O)c(-n2nc3ccccc3n2)c1` was 1210 nM.
Turning to `COc1ccc(NC(C)=O)cc1S(=O)(=O)Nc1ccccc1C(=O)NCCc1ccccc1`, the AC40 was > 35000 nM (inactive).
Regarding `Cc1cccc(NC(=O)c2onc3c2CCCC3)c1C`, the AC40 is 1620 nM.
Regarding `Cc1ccc(Nc2cc(C)c3c(O)cccc3n2)cc1C`, the AC40 was 3400 nM.
Consider `O=C1/C(=C/c2cccnc2)CCc2c1[nH]c1ccccc21`, for which the AC40 was 6490 nM.
Next, `O=c1oc2cc(Cl)ccc2n1CSc1nc2ccccc2s1`: 4250 nM; `CC(C)c1ccc2nc(N)sc2c1`: > 35000 nM (inactive); `COc1ccc(-c2nnc(SCc3ccccc3)n2N)cc1`: 5970 nM.
In the case of `CCN(CC)c1ccc(Nc2nc(-c3cccnc3)cs2)cc1`, the AC40 is 2640 nM.
As to `O=C(NCC1CC1)Nc1ccc(Cl)cc1`, the AC40 is 12900 nM.
For `c1ccn(-c2ccc(-c3ccn[nH]3)cc2)c1`, the AC40 is 2300 nM.
`Fc1cc(Br)ccc1COc1ccc(-c2nnco2)cc1`: the AC40 was 3080 nM.
Take `CCc1cccc2c(C(=O)CN3C(=O)NC4(CCCCCC4)C3=O)c[nH]c12`: the AC40 is > 35000 nM (inactive).
Next, `c1ccc(-n2nnc(-c3cccnc3)n2)cc1`: 8400 nM; `COc1ccc(Oc2nnc(C)c3ccccc23)cc1`: 2600 nM; `O=C(NCCc1ccc(O)cc1)c1ccc(Cl)cc1`: 2880 nM.
As for `c1ccc2nc(-c3nccs3)ccc2c1`, the AC40 was 8940 nM.
`Cc1cc(NC(=O)Nc2ccc3c(ccn3C)c2)sn1`: the AC40 was 7890 nM.
Regarding `CC/C(=N\NC(=O)c1csc(C)c1C)c1cccs1`, the AC40 is 733 nM.
Next, `CCC(=O)Nc1sc(C(=O)Nc2ccccc2F)c(C)c1C(=O)OC`: 568 nM.
For `CCCc1ccc(C(=O)NNc2ccccc2F)cc1`, the AC40 is 8640 nM.
The value for `O=c1c2c(nc3cc(-c4ccc(Br)cc4)[nH]n13)CCCC2` was 286 nM.
